Laboratory results published in ChEMBL document CHEMBL3616453, “Recent progress in the development of small-molecule glucagon receptor antagonists” (Bioorg Med Chem Lett, 2015).
One block for each compound: values may come before it.

Experiments:
[1] = biological target: T1, Glucagon receptor (Homo sapiens, UniProt P47871); assay: Antagonist activity at recombinant human glucagon receptor expressed in CHO cells assessed as inhibition of glucagon-stimulated intracellular cAMP formation preincubated for 30 mins followed by glucagon stimulation measured after 45 mins by LANCE assay; type: functional, cell-based
[2] = biological target: T1, Glucagon receptor; assay: Displacement of [125I]-glucagon from human glucagon receptor expressed in Chem-1 cell membranes after 6 to 10 hrs by scintillation proximity assay
[3] = biological target: T1, Glucagon receptor; assay: Antagonist activity at human glucagon receptor expressed in CHOK1 cells assessed as inhibition of glucagon-stimulated intracellular cAMP formation preincubated for 20 mins followed by glucagon stimulation measured after 30 mins by fluorescent plate reader analysis; type: functional, cell-based; details: CHO-K1
[4] = biological target: T1, Glucagon receptor; assay: Displacement of [125I]-glucagon from full length human glucagon receptor expressed in HEK293 cell membranes after 2 hrs by scintillation counting analysis
[5] = biological target: T1, Glucagon receptor; assay: Antagonist activity at human glucagon receptor expressed in HEK293 cell membranes assessed as inhibition of glucagon-stimulated intracellular cAMP formation preincubated for 30 mins followed by glucagon stimulation measured after 5 mins by TR-FRET analysis; type: functional, cell-based
[6] = biological target: T1, Glucagon receptor; assay: Displacement of [125I]-glucagon from human glucagon receptor expressed in HEK293 cell membranes at 10 uM after 2 hrs by microplate scintillation counting analysis relative to control
[7] = organism: Homo sapiens; assay: Hypoglycemic activity in human assessed as time required to glucose recovery from 50 mg/dl to >= 70 mg/dl at 1 g (reference value: 33.3 min); type: functional
[8] = tested on: Homo sapiens; assay: Antidiabetic activity in type-2 diabetic human model assessed as reduction in HbA1c level at 60 mg, qd administered for 12 weeks measured after post last dose relative to control; type: functional; set-up: scale not given: the % may be the effect or the level left
[9] = organism: Homo sapiens; assay: Hypoglycemic activity in type-2 diabetic human assessed as time required to glucose recovery from 50 mg/dl to >= 63 mg/dl at 1 g in presence of beta blocker propranolol (reference value: 71 min); type: functional
[10] = tested on: Homo sapiens; assay: Antidiabetic activity in type-2 diabetic human model assessed as reduction in HbA1c level at 20 mg, qd administered for 12 weeks measured after post last dose relative to control; type: functional; set-up: scale not given: the % may be the effect or the level left
[11] = organism: Homo sapiens; assay: Hypoglycemic activity in human assessed as time required to glucose recovery from 50 mg/dl to >= 70 mg/dl at 200 mg (reference value: 33.3 min); type: functional
[12] = Half life in human; type: ADME, organism-based; details: in vivo
[13] = tested on: Homo sapiens; assay: Antidiabetic activity in type-2 diabetic human model assessed as reduction in HbA1c level at 80 mg, qd administered for 12 weeks measured after post last dose relative to control; type: functional; set-up: scale not given: the % may be the effect or the level left
[14] = tested on: Homo sapiens; assay: Antidiabetic activity in type-2 diabetic human model assessed as reduction in HbA1c level at 40 mg, qd administered for 12 weeks measured after post last dose relative to control; type: functional; set-up: scale not given: the % may be the effect or the level left
[15] = organism: Homo sapiens; assay: Antidiabetic activity in type-2 diabetic human model assessed as decrease in fasting plasma glucose level at 10 mg, qd measured during day time; type: functional
[16] = tested on: Homo sapiens; assay: In vivo inhibition of gucagon receptor in type-2 diabetic human model at 6 mg, qd measured during night time relative to control; type: functional
[17] = tested on: Homo sapiens; assay: In vivo inhibition of gucagon receptor in type-2 diabetic human model at 25 mg, bid measured over 24 hrs relative to control; type: functional
[18] = organism: Homo sapiens; assay: Antidiabetic activity in type-2 diabetic human model assessed as decrease in 24 hrs weighted mean glucose level at 10 mg, qd measured during day time; type: functional
[19] = organism: Homo sapiens; assay: Antidiabetic activity in type-2 diabetic human model assessed as decrease in fasting plasma glucose level at 6 mg, qd measured during night time; type: functional
[20] = organism: Homo sapiens; assay: Toxicity in type-2 diabetic human model assessed as increase in LDL-C level at 25 mg, bid relative to control; type: organism-based; details: in vivo
[21] = tested on: Homo sapiens; assay: In vivo inhibition of gucagon receptor in type-2 diabetic human model at 10 mg, qd measured during day time relative to control; type: functional
[22] = organism: Homo sapiens; assay: Antidiabetic activity in type-2 diabetic human model assessed as decrease in fasting plasma glucose level at 25 mg, bid; type: functional

T1 sequence (P47871 whole entry): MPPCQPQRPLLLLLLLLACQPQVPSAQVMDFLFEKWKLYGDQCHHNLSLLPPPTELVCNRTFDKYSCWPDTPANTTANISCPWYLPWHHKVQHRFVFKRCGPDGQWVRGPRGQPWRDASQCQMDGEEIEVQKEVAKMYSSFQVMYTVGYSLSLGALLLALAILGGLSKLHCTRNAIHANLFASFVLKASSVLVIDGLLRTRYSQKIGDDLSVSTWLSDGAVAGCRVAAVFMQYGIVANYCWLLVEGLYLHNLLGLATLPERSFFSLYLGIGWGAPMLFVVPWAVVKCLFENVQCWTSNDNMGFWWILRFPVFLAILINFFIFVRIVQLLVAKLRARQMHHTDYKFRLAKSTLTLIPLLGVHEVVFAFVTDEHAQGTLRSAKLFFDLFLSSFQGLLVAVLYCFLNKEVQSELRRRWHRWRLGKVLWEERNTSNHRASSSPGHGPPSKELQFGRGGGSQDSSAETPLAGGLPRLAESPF

SMILES: CC(C)(C)CC[C@H](c1ccc(C(=O)NCCC(=O)O)cc1)N1C(=O)C(c2cccc(F)c2)=NC12CCC([Si](C)(C)C)CC2 (stereo partly specified)
- IC50 [1]: 22 nM

SMILES: CC(C)(C)CCOc1cccc(C2=NC3(CCC(C(C)(C)C)CC3)N([C@H](CCC(C)(C)C)c3ccc(C(=O)NCc4nn[nH]n4)cc3)C2=O)c1 (stereo partly specified)
- IC50 [1]: 61 nM

SMILES: Cc1cc(C(F)(F)F)ccc1-c1ccc(NCc2ccc(C(F)(F)F)cc2-c2ccc(C(=O)NCCC(=O)O)nc2)cc1Cl
- Ki [4]: 17 nM
- IC50 [5]: 22 nM

SMILES: Cc1cc(C(F)(F)F)ccc1-c1ccc(NCc2cc(C(C)C)cc(C(F)(F)F)c2-c2ccc(C(=O)NCCC(=O)O)cc2)cc1Cl
- Ki [4]: 30 nM

SMILES: Cc1cc(Cl)ccc1-c1ccc(NCc2cc(Cl)cc(C(F)(F)F)c2-c2ccc(C(=O)NCCC(=O)O)nc2)cc1
- Ki [4]: 20 nM
- IC50 [5]: 4 nM

SMILES: Cc1cc(-c2ncc(C(F)(F)F)cn2)ccc1C(CCC(F)(F)F)Nc1ccc(C(=O)N2CCC[C@@H](C(=O)O)C2)cc1 (stereo partly specified)
- inhibition [6]: 91%

SMILES: Cc1cc(-n2cc3c(n2)CCCC3)ccc1C(CCC(F)(F)F)Nc1ccc(C(=O)N2CCC[C@@H](C(=O)O)C2)cn1 (stereo partly specified)
- inhibition [6]: 90%

SMILES: Cc1cc2ccccc2nc1NC(c1ccc(C(=O)NCCC(=O)O)cc1)C1CC(C)(C)C1 (stereo unspecified)
- Kb [3]: 23 nM

SMILES: CC1(C)CC(C(Nc2cnc(-n3cc(C(F)(F)F)cn3)nc2)c2ccc(C(=O)NCCC(=O)O)cc2)C1 (racemic)
- Kb [3]: 19 nM

More lines, main results first:

- Ki [2]: 26 nM
- Kb [3]: 9.5 nM
SMILES: CCC[C@H](Nc1ccc(-n2cc(-c3ccccc3)cn2)cc1)c1ccc(C(=O)NCCC(=O)O)cc1

- Kb [3]: 33 nM
SMILES: Cc1cc2cc(F)ccc2nc1NC(c1ccc(C(=O)NCCC(=O)O)cc1)C1CC(C)(C)C1 (stereo unspecified)

- half-life [12]: 60 h
SMILES: COc1ccc2cc(-c3cc(-c4cc(Cl)cc(Cl)c4)nn3[C@@H](C)c3ccc(C(=O)NCCC(=O)O)cc3)ccc2c1 [MK-0893]
- Time [7]: 59.1 min
- Activity [8]: 1.5%
- Time [9]: 103 min
- Activity [10]: 0.6%
- Time [11]: 45 min
- Activity [13]: 1.8%
- Activity [14]: 1%

- half-life [12]: 4 h
SMILES: CCC[C@H](c1ccc(C(=O)NCCC(=O)O)cc1)[C@H](c1ccc(Cl)cc1)c1c[nH]c2c(F)cc(C)cc12 [MK-3577]
- Activity [15]: 7.2 mg/dL
- inhibition (INH) [16]: <50%
- inhibition (INH) [17]: >80%
- Activity [18]: 18.8 mg/dL
- Activity [19]: 17.5 mg/dL
- Activity [20]: 10%
- inhibition (INH) [21]: <50%
- Activity [22]: 31.7 mg/dL
